This is an account of results in ChEMBL document CHEMBL1150221, “Isolation and structure determination of nostocyclopeptides A1 and A2 from the terrestrial cyanobacterium Nostoc sp. ATCC53789” (J Nat Prod, 2001).

The structures appear in SMILES notation. The source made the active and inactive calls. No cut-off for these calls is given here.

One experiment deals with Plasminogen (Homo sapiens, UniProt P00747). Put plainly: Inhibition of plasmin.
The nature of experiment [1]: Inhibition of elastase.
For experiment [2], the system named is Mycobacterium tuberculosis. As to the kind of experiment: […] activity against Mycobacterium tuberculosis 35818 at 25 ug/disk. The class given is functional, organism-based.
The next experiment addresses Prothrombin (Homo sapiens, UniProt P00734). Put plainly: Inhibition of thrombin.
Experiment [3] is described as follows: Inhibition of trypsin.
The next experiment has as its system Candida albicans. As to the kind of experiment: Antifungal activity against Candida albicans at 25 ug/disk. The format is functional, organism-based.
Another experiment deals with Pseudomonas aeruginosa. Put plainly: […] activity against Pseudomonas aeruginosa at 25 ug/disk. The format is functional, organism-based.
Experiment [4] can be described thus: Inhibition of protease.
Experiment [5] is described as follows: Inhibition of chymotrypsin.
The test system of a further experiment is KB. As to the kind of experiment: Cytotoxicity against human KB cells. The format is functional, cell-based.
The test system of another experiment is LoVo. Put plainly: Cytotoxicity against human LoVo cells. The class given is functional, cell-based.
For another experiment, the target named is T1, Papain (Carica papaya, UniProt P00784).
T1 sequence (P00784 whole entry): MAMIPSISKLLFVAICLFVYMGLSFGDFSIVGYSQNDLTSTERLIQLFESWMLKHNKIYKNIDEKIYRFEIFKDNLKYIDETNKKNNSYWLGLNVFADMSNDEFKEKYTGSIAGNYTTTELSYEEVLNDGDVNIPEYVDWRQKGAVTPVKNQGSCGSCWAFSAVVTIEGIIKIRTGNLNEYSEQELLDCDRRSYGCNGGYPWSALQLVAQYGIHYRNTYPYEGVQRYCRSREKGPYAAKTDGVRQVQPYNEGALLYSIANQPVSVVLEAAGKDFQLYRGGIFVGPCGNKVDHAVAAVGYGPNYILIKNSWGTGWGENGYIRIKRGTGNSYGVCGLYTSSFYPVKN
As to the kind of experiment: Inhibition of papaya papain.

Experiment [6] relates to Mycobacterium tuberculosis. As to the kind of experiment: […] activity against Mycobacterium tuberculosis 25177 at 25 ug/disk. The class given is functional, organism-based.

Chain of Plasminogen (P00747 97-580 limits assumed): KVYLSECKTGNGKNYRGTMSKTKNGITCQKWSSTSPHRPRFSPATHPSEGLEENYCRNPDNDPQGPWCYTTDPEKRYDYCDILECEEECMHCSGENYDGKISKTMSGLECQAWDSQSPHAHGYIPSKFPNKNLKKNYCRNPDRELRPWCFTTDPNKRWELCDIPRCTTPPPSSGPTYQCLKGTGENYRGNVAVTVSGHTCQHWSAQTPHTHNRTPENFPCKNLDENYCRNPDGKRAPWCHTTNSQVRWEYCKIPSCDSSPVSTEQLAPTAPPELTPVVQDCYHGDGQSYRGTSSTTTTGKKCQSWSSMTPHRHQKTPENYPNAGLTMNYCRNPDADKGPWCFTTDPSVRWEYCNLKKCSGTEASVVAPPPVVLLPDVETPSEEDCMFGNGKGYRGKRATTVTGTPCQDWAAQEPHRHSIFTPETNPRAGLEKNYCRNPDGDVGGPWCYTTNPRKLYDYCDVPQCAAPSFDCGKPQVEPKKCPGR
Chain of Plasminogen (P00747 581-810 limits assumed): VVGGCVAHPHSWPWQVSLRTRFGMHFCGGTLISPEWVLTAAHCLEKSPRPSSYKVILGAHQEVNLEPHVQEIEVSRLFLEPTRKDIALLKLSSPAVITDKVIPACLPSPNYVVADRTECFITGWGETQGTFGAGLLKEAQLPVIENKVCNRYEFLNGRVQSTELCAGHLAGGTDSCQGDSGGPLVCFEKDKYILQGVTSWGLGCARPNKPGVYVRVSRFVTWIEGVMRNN

Turning to `CC[C@H](C)[C@@H]1NC(=O)[C@@H](CCC(N)=O)NC(=O)CNC(=O)[C@H](Cc2ccc(O)cc2)/N=C/[C@H](CC(C)C)NC(=O)[C@@H]2C[C@H](C)CN2C(=O)[C@H](CO)NC1=O` [NOSTOCYCLOPEPTIDE A1], the IC50 on Plasminogen is more than 50 µM; in experiment [1], less than 25 µM; on Prothrombin, more than 50 µM; in experiment [3], more than 50 µM; in [5], less than 25 µM; with KB, 1 µM. Further, the concentration for half-maximal inhibition (IC50) was 1 µM in the experiment with LoVo and less than 25 µM on Papain. The result (in experiment [2]; in the experiment on Candida albicans; with Pseudomonas aeruginosa; in [4]; in experiment [6]) was inactive.

Regarding `CC[C@H](C)[C@@H]1NC(=O)[C@@H](CCC(N)=O)NC(=O)CNC(=O)[C@H](Cc2ccc(O)cc2)/N=C/[C@H](Cc2ccccc2)NC(=O)[C@@H]2C[C@H](C)CN2C(=O)[C@H](CO)NC1=O` [NOSTOCYCLOPEPTIDE A2], the IC50 on Plasminogen is more than 50 µM; in [1] it was less than 25 µM; against Prothrombin, more than 50 µM; in [3], more than 50 µM; in experiment [5], less than 25 µM; with KB it was 1 µM. Moreover, the IC50 in the experiment with LoVo is 1 µM; on Papain, less than 25 µM. Moreover, the result (in [2]; in the experiment on Candida albicans; in the experiment on Pseudomonas aeruginosa; in [4]; in experiment [6]) was inactive.

By IC50 is commonly meant the point on the concentration scale where inhibition reaches its midpoint. Lower therefore signals higher potency.
